Calls of active or inactive are those of the source.
Columns and labels:
[1] = M. tuberculosis H37Rv growth inhibitors, H37Rv strain (AID 1626); type: functional
[2] = target: G-protein coupled receptor 55 (Homo sapiens, UniProt Q9Y2T6); assay: GPR55 agonists via beta-arrestin recruitment, primary screen, imaging, U2OS cells, beta-arrestin-GFP redistribution (AID 1961); type: functional
[3] = THP-1 cell cytotoxicity, dose response, cytotoxicity control for Vif-APOBEC3G degradation inhibitor project, THP-1 cells (AID 1117359); type: functional; settings: Human immunodeficiency virus 1, THP-1
[4] = A Cell Based Secondary Assay To Explore Cytotoxicity of Compounds that Sensitize Mycobacterium Tuberculosis to Beta-Lactam Antibiotics.; type: functional
[5] = target: Cytochrome P450 2C9 (Homo sapiens, UniProt P11712)
[6] = target: T1, Corticotropin-releasing factor receptor 2/Corticotropin-releasing factor-binding protein (Homo sapiens, UniProt P24387+Q13324); assay: activators of CRF receptor 2 with binding protein – uHTS hits, confirmation (AID 602473); type: functional; settings: read-out: EC50_Mean
T1 sequence (Q13324 whole entry): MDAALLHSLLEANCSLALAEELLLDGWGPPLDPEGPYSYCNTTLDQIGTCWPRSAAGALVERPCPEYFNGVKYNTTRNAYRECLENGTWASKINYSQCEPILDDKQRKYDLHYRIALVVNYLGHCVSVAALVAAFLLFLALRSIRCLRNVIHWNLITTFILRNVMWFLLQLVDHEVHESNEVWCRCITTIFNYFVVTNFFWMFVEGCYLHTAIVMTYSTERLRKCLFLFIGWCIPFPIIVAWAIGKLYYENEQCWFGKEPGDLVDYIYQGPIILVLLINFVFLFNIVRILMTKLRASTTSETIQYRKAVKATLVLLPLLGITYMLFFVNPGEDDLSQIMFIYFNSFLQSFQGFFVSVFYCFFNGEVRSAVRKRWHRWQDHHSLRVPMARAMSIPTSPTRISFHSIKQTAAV
T1 sequence (P24387 whole entry): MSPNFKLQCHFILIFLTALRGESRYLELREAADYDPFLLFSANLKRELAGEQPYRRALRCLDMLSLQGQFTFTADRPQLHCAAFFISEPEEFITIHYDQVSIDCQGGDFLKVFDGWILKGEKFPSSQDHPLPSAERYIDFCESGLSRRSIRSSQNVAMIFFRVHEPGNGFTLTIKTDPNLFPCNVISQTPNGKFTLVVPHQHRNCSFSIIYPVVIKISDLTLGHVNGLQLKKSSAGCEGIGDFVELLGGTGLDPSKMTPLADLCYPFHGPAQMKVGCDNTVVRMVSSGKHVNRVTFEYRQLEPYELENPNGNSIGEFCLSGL

[7] = target: T1, Corticotropin-releasing factor receptor 2/Corticotropin-releasing factor-binding protein; assay: Dose Response confirmation of uHTS hits for small molecule antagonists of the CRF-binding protein and CRF-R2 receptor complex.; type: functional; settings: read-out: IC50_Mean
[8] = cytotoxicity toward NIH3T3 fibroblasts, dose response, counter-screen, cell-based, ATP luminescence, mouse fibroblasts (AID 2010); type: functional;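 further: cells exposed to compound for about 90 hours before reading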
[9] = target: T2, Protein RecA (Mycobacterium tuberculosis, UniProt P9WHJ3); assay: Fluorescence Cell-Free Homogeneous Dose Retest to Identify Inhibitors of RecA-Intein Splicing Activity. [Related pubchem assays (depositor defined):AID2097, AID2223, AID489010, AID492950]; type: functional
T2 sequence (P9WHJ3 whole entry): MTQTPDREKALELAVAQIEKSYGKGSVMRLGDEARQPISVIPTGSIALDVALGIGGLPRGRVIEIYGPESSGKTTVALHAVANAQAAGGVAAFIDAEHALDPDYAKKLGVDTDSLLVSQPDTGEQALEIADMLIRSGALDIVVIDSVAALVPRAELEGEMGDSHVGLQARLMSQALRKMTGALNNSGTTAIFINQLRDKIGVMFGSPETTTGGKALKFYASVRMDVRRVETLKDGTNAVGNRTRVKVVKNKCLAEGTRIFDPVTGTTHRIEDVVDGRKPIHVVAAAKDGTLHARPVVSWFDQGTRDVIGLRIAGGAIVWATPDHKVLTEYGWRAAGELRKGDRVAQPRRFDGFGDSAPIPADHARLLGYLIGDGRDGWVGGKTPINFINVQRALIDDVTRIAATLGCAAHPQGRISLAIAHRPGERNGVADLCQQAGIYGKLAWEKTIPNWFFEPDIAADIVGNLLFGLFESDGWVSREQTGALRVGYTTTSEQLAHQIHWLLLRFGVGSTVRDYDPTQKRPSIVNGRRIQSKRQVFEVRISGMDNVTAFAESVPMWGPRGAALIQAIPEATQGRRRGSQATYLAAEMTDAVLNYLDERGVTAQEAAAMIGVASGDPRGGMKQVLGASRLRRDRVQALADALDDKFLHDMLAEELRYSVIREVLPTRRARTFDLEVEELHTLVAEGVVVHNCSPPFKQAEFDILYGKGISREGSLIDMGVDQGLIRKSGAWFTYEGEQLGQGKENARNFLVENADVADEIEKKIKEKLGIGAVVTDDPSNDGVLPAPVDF

[10] = target: T3, Mannose-6-phosphate isomerase (Homo sapiens, UniProt P34949); assay: human PMI inhibitors, high substrate, primary screen, biochemical, fluorescence intensity, high mannose 6-phosphate (AID 1220)
T3 sequence (P34949 whole entry): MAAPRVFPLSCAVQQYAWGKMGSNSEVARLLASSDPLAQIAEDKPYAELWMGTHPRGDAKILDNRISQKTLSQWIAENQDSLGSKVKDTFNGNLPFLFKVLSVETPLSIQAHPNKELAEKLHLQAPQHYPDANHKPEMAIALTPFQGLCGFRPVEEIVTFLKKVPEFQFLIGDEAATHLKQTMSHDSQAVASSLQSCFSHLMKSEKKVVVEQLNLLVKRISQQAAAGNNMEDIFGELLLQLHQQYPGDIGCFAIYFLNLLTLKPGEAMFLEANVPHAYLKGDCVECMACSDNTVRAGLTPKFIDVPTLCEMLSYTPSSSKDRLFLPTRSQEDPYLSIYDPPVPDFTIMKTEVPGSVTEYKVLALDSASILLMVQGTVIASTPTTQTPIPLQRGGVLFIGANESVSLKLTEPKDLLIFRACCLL

[11] = inhibitors of intracellular T. cruzi replication, confirmation, NIH3T3 host cells, beta-gal luminescence (AID 2044); type: functional, cell-based;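 further: intracellular parasites grown in NIH/3T3 mouse fibroblasts as host cells; luminescent beta-galactosidase reporter signal from transgenic T. cruzi replicating inside host cells; inhibitors lower the luminescence signal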
[12] = tested on: Streptococcus; assay: Group A Streptococcus viability loss, dose response, counter-screen for streptokinase expression inhibitor project, luminescence, BacTiterGlo (AID 1915); type: functional, organism-based;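 further: potency for reduction of bacterial viability or growth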
[13] = tested on: Streptococcus sp. 'group A'; assay: growth inhibition of control SK(-) GAS strain, dose response, counter-screen for streptokinase expression inhibitor project, luminescence, kanamycin, BacTiterGlo, confirmation (AID 1900); type: functional, organism-based
[14] = target: Eukaryotic translation initiation factor 4E (Mus musculus, UniProt P63073); assay: eIF4E–eIF4G protein interaction inhibitors, dose response, biochemical, TR-FRET (AID 855); type: functional;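 further: potency for disrupting eIF4E binding to eIF4GI seen as loss of FRET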
[15] = target: T4, Estrogen receptor (Homo sapiens, UniProt P03372);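 further: potency for inhibiting coactivator peptide recruitment to the receptor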
T4 sequence (P03372 whole entry): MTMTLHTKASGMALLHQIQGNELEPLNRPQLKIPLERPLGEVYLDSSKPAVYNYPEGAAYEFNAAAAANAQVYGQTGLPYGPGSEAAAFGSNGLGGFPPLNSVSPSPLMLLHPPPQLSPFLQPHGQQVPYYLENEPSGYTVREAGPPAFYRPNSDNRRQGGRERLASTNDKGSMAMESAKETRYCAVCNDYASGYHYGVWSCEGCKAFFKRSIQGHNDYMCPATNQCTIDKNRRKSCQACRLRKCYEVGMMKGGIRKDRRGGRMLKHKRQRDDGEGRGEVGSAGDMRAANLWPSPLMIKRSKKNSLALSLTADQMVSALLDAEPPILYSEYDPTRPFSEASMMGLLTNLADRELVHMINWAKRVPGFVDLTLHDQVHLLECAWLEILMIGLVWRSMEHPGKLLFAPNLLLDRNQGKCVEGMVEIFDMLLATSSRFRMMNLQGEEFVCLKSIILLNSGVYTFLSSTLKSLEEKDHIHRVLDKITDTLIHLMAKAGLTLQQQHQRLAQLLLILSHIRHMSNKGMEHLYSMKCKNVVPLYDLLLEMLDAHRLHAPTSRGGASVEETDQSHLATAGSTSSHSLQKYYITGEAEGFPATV

[16] = target: Induced myeloid leukemia cell differentiation protein Mcl-1 (Homo sapiens, UniProt Q07820); type: functional
[17] = target: DNA (cytosine-5)-methyltransferase 1 (Homo sapiens, UniProt P26358); assay: DNMT1 methyltransferase inhibitors, confirmation, biochemical, fluorescent molecular beacon (AID 602386); type: functional
[18] = tested on: HEK293; assay: cells; type: functional, cell-based; settings: Homo sapiens
[19] = tested on: HEK293; assay: NOD2 signaling inhibitors in MDP-stimulated cells, cell-based, uHTS, luminescence (AID 2001); type: functional; settings: Homo sapiens
[20] = tested on: HEK293; assay: NOD1 signaling inhibitors, primary screen, cell-based, luminescence, uHTS (AID 1578); type: functional; settings: Homo sapiens
[21] = target: Nucleotide-binding oligomerization domain-containing protein 2 (Homo sapiens, UniProt Q9HC29); assay: NOD2 signaling inhibitors, cell-based, luminescence, uHTS, HEK293 (AID 1566); type: functional
[22] = tested on: HEK293; assay: cells; type: functional, cell-based; settings: Homo sapiens; remark: listed apart in the source
[23] = tested on: HEK293; assay: cells; type: functional, cell-based; settings: Homo sapiens; remark: listed apart in the source
[24] = target: T5, Replicative DNA helicase DnaB (Mycobacterium tuberculosis, UniProt P9WMR3); assay: DnaB intein splicing inhibitors, dose response, biochemical, cell-free fluorescence (AID 449749); type: functional
T5 sequence (P9WMR3 whole entry): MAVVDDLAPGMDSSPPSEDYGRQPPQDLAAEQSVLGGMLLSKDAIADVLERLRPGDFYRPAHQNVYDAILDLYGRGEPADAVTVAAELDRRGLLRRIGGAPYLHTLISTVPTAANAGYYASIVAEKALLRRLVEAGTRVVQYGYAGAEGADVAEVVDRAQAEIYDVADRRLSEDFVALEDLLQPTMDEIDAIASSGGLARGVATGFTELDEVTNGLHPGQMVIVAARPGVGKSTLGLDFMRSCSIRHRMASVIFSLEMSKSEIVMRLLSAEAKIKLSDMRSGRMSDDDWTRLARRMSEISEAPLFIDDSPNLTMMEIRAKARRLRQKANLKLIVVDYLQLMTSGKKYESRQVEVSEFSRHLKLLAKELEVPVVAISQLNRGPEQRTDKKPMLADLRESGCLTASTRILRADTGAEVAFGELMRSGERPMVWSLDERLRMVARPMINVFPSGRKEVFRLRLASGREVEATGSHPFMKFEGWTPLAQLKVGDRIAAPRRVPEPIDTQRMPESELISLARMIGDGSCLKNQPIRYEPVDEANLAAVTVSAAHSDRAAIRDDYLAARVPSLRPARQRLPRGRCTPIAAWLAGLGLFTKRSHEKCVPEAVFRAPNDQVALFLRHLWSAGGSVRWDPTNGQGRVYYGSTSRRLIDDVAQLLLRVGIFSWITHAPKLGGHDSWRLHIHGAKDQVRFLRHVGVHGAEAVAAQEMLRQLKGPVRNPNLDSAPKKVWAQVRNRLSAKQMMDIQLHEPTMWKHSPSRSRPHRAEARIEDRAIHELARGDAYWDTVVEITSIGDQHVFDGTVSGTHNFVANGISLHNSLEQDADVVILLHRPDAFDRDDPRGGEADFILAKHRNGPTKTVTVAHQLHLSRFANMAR

[25] = target: T6, Estrogen receptor beta (Homo sapiens, UniProt Q92731); assay: ERβ–SRC-3 coactivator interaction inhibitors, confirmation, orthogonal assay, biochemical, ELISA, streptavidin-HRP readout (AID 1060)
[26] = target: T6, Estrogen receptor beta

Chain of G-protein coupled receptor 55 (Q9Y2T6 whole entry): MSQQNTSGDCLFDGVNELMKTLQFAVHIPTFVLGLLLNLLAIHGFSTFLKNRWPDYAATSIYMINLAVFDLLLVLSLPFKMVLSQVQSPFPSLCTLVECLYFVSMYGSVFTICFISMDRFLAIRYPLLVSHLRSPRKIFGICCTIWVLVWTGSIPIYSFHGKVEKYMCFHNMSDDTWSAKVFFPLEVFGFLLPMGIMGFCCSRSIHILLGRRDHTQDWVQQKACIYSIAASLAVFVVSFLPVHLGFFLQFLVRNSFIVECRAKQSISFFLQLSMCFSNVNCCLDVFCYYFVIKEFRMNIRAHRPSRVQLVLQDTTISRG
T6 sequence (Q92731 whole entry): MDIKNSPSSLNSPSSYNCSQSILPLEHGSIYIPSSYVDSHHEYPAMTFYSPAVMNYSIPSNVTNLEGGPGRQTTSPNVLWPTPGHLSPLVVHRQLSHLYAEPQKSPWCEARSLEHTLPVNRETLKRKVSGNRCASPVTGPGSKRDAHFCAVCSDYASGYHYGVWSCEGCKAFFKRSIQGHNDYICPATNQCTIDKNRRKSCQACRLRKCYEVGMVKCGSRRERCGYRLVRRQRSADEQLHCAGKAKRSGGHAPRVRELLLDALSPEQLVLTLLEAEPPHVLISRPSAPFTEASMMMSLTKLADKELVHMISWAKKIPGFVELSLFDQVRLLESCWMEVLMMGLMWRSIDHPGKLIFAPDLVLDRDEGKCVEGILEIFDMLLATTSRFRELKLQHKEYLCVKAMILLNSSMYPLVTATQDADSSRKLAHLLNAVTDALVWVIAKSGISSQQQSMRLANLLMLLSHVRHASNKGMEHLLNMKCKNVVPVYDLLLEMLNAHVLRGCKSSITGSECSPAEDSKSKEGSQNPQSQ
Chain of Nucleotide-binding oligomerization domain-containing protein 2 (Q9HC29 whole entry, the tested form may be a part): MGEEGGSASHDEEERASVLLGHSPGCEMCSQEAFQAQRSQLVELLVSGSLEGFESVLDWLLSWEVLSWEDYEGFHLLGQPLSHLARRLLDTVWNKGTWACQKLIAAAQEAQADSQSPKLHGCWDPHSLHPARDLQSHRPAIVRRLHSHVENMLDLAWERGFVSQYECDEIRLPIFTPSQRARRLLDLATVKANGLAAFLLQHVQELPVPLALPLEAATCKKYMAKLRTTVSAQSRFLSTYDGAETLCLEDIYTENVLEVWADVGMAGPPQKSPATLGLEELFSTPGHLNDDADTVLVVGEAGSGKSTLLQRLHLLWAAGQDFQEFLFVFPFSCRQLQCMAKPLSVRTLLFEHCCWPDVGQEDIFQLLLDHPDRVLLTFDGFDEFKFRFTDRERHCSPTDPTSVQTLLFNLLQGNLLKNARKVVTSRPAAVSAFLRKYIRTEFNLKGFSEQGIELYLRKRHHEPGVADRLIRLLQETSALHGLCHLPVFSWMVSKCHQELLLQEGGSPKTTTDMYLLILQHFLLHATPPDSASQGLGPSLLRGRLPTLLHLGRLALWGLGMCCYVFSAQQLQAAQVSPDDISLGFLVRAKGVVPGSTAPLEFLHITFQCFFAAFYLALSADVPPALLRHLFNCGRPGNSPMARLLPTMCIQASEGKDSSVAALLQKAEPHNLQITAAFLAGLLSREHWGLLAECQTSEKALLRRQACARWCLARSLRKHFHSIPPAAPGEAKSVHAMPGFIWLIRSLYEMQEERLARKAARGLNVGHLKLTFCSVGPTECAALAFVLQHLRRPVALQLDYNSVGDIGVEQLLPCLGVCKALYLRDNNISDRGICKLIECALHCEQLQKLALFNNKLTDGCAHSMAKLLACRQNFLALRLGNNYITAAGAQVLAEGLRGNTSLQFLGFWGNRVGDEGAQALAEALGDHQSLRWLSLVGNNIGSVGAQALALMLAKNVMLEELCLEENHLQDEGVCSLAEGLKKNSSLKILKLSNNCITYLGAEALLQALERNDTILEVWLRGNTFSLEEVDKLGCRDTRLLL
Chain of Induced myeloid leukemia cell differentiation protein Mcl-1 (Q07820 whole entry): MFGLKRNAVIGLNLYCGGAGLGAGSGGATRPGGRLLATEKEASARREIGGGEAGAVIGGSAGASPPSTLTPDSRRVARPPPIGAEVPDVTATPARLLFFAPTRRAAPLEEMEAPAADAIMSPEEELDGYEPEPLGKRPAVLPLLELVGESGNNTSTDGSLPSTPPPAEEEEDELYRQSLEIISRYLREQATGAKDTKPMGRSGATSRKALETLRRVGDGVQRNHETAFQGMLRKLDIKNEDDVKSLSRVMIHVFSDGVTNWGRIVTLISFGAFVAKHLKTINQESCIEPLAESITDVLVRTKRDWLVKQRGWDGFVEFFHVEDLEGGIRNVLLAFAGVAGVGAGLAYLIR
Chain of Eukaryotic translation initiation factor 4E (P63073 whole entry): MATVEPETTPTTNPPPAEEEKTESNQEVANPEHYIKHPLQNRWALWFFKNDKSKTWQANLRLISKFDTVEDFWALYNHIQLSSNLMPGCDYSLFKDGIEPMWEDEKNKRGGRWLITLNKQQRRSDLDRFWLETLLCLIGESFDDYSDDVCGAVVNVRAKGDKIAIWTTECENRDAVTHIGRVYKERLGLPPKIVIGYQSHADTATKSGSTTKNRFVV
Chain of Cytochrome P450 2C9 (P11712 whole entry): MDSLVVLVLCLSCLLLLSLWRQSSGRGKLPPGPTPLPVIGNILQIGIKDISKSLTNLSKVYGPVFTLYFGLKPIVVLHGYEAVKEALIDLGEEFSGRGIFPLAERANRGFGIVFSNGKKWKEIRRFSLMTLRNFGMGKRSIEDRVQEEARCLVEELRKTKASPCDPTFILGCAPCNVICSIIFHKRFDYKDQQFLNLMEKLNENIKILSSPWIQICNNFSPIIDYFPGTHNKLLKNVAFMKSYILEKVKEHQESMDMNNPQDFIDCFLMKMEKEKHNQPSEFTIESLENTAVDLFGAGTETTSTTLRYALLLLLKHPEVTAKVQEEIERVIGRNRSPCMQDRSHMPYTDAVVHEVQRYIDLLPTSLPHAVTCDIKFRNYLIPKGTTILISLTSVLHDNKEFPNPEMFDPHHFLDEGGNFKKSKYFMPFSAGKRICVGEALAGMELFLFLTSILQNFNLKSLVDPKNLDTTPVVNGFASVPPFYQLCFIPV
Chain of DNA (cytosine-5)-methyltransferase 1 (P26358 whole entry): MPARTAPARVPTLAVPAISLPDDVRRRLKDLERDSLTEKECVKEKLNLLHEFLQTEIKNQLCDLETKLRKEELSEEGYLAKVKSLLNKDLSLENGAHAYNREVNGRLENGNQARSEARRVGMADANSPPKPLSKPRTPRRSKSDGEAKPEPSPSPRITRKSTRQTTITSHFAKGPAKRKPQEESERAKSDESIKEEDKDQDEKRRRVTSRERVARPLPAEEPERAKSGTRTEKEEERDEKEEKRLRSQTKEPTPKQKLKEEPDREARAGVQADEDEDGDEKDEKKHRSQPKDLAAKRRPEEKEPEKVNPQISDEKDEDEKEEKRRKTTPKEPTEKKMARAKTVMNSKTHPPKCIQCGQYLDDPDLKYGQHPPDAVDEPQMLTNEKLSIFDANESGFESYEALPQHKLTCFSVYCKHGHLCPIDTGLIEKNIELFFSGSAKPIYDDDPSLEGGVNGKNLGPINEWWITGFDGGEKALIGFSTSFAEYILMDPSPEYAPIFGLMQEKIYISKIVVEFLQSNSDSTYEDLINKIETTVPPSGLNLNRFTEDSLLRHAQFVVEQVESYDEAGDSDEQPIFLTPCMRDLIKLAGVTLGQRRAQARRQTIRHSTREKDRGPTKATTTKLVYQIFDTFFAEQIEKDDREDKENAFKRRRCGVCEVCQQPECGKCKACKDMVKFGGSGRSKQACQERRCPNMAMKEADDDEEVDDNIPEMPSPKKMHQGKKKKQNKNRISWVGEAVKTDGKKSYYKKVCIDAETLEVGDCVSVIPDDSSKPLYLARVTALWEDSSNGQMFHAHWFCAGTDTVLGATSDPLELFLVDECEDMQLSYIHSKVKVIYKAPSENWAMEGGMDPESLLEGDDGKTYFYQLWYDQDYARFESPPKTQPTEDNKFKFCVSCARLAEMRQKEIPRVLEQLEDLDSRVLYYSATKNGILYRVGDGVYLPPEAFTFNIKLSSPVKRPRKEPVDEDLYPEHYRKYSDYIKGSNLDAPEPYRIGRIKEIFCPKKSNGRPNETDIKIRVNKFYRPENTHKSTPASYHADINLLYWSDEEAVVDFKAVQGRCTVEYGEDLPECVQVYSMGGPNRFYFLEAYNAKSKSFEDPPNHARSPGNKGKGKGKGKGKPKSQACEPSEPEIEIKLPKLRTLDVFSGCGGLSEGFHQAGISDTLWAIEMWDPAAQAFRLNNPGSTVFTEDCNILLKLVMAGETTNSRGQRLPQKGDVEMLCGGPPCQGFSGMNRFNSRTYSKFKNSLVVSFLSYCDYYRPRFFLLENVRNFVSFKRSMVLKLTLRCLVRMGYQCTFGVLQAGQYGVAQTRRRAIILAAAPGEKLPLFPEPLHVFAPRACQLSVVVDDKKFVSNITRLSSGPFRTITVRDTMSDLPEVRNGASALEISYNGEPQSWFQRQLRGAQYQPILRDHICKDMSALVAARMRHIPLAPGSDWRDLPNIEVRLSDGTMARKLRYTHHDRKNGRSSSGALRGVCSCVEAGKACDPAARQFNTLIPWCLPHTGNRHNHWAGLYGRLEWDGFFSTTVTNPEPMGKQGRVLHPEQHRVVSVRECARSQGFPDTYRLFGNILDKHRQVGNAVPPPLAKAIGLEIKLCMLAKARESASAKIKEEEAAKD

Structure (SMILES): CC(=O)Nc1cccc(OCc2ccc(F)cc2)c1
- IC50 [1]: > 100 µM (active)

Structure (SMILES): Cc1ccc(NC(=O)COC(=O)CC2CCCC2)cc1Cl
- IC50 [1]: > 100 µM (active)

Structure (SMILES): O=CN1CCN(c2ncnc3c2nnn3Cc2c(F)cccc2Cl)CC1
- EC50 [2]: 12.7 µM (inactive)

Structure (SMILES): COc1cccc(/C=N/NC(=O)c2cnccn2)c1O
- CC50 [3]: > 40 µM (active)
- CC50 [4]: > 40 µM (active)

Structure (SMILES): Cc1ccc(Cc2cnc(NC(=O)C3CCCO3)s2)cc1 (stereo not drawn)
- IC50 [1]: > 100 µM (active)

Structure (SMILES): O=C(CSc1nc2ccccc2o1)N1c2ccccc2Sc2ccc(Cl)cc21
- AC50 [5]: 3.16 µM (inconclusive)
- EC50 [2]: > 32 µM (inactive)

Structure (SMILES): Cc1cc2c(N=NC(=O)C3CC3c3ccccc3)c(O)[nH]c2cc1Br (stereo not drawn)
- EC50 [6]: > 53 µM (inactive)
- IC50 [7]: > 47.1 µM (inactive)
- CC50 [4]: 32.8 µM (active)

Structure (SMILES): CCCCn1c(N)c(C(=O)NCc2cccs2)c2nc3ccccc3nc21
- EC50 [8]: > 60 µM (not active)
- EC50 [9]: 47.4 µM (inconclusive)
- IC50 [10]: > 50 µM (not active)
- EC50 [11]: 2.83 µM (active)

Structure (SMILES): Cc1ccc(NC(=O)CN2C(=O)S/C(=C/c3ccc(-c4cc(C(=O)O)ccc4C)o3)C2=O)cc1C
- EC50 [12]: 6.89 µM (active)
- EC50 [13]: 2.31 µM (active)
- IC50 [14]: 14.4 µM (active)
- IC50 [15]: 18.2 µM (active)
- IC50 [16]: 2.05 µM (active)
- IC50 [17]: 11.3 µM (active)

Structure (SMILES): O=C(Nc1cccc(Br)c1)c1ccc(Cl)c(S(=O)(=O)N2CCOCC2)c1
- IC50 [18]: 6.44 µM (active)
- IC50 [19]: 3.44 µM (active)
- EC50 [20]: 10.3 µM (active)
- EC50 [21]: > 20 µM (inactive)
- IC50 [22]: 2.87 µM (active)
- IC50 [23]: > 20 µM (inactive)

Structure (SMILES): O=C(Oc1ccc(N2C(=O)CCC2=O)cc1)c1ccco1
- EC50 [9]: 0.388 µM (active)
- AC50 [24]: 0.351 µM (inconclusive)
- IC50 [15]: > 50 µM (not active)

Structure (SMILES): C=CCn1c(SCC(=O)NC(=O)NCc2ccco2)nc2sc(CC)cc2c1=O
- IC50 [25]: 0.0317 µM (not active)
- IC50 [26]: 13.6 µM (active)
- IC50 [15]: 10.1 µM (active)

Source: ChEMBL document CHEMBL1201862, “PubChem BioAssay data set” (2004)
